Reference: PMC9147390, “Evaluation of TILI-2 as an Anti-Tyrosinase, Anti-Oxidative Agent and Its Role in Preventing Melanogenesis Using a Proteomics Approach” (Molecules, 2022)
No end group written: not given here.

Assays:
[1] = ABTS radical scavenging assay; settings: 0 to 50 µM, 6 min, room temperature
Experimental: The ABTS radical scavenging assay was performed with slight modifications of the protocol reported by Re et al.. Briefly, ABTS^+ was generated by the incubation of 7 mM ABTS with 2.45 mM potassium persulfate for 16 h at room temperature. Next, the ABTS radical solution was diluted until the absorbance at 734 nm was 0.7. The diluted ABTS radical solution (100 µL) was mixed with TILI-2 (final concentration 0–200 µM, 10 µL) and incubated at room temperature for 6 min. After that, the absorbance at 734 nm was measured using a SpectraMax M5 plate reader (Molecular Devices, Sunnyvale, CA, USA). The percentage of ABTS radical inhibition was calculated using the equation below: ABTS radical inhibition %=1−A734 sample/A734 control×100 where A734 sample and A734 control are the absorbance at 734 nm of the reaction with and without peptide.
(§1) The data were represented as mean ± SD (n = 3). An ANOVA test according to Duncan (p < 0.05) was used for each comparison (IBM SPSS Statistics 20).

[2] = DPPH radical scavenging assay; settings: 0 to 200 µM, 30 min, room temperature, dark
Experimental: The DPPH radical scavenging assay was performed with slight modifications of the protocol reported by Jandaruang et al.. Briefly, a DPPH radical solution (0.1 mM, 100 µL) was mixed with TILI-2 (final concentration 0–200 µM, 10 µL) and incubated at room temperature in the dark for 30 min. Then, the reaction was monitored by measuring the absorbance of 515 nm using a SpectraMax M5 plate reader (Molecular Devices, Sunnyvale, CA, USA). DPPH radical inhibition (%) was calculated using the equation below: DPPH radical inhibition %=1−A515 sample/A515 control×100 where A515 sample and A515 control are the absorbance at 515 nm of the reaction with and without peptide.
as §1

[3] = test system: NHDF cells; experiment: Cell viability assay (MTT), fibroblasts; assay type: cell-based, human; settings: 24 h
Experimental: (§2) Fibroblast cells (NHDF) and B16F1 cells were purchased from the American Type Culture Collection (ATCC, Manassas, VA, USA) and cells were cultured in DMEM supplemented with 10% heat-inactivated FBS, 1% penicillin-streptomycin solution, and 5% L-glutamine. RAW 264.7 cells were purchased from the American Type Culture Collection (ATCC, Manassas, VA, USA) and cells were cultured in RPMI supplemented with 10% heat-inactivated FBS and 1% penicillin-streptomycin solution. These cells were cultured at 37 °C in a 5% CO2 and 90% relative humidity incubator. Cell viability assay was performed using slight modifications of the protocol described by Phosri et al.. Briefly, fibroblast cells (NHDF) (8000 cells/well) and RAW 264.7 cells (25,000 cells/well) were seeded onto a 96-well plate and allowed to recover overnight. Then, the cells were incubated with different concentrations of peptides (final concentration of 0–1400 µM, 100 µL). After 24 h incubation, the culture medium was removed, and MTT was added (0.5% w/v, 100 µL). After incubation for a further 30 min at 37 °C, DMSO was added and the absorbance at 570 nm was measured. The cell viability was calculated using the equation below: Cell viability %=A570 sample/A570 control×100 where A570 sample and A570 control are the absorbance of cells with and without the peptide treatment. The data were represented as mean ± SD (n = 3). […]

[4] = test system: RAW 264.7 cells; experiment: Cell viability assay (MTT), macrophages; assay type: cell-based; settings: 24 h
Experimental: as §2

[5] = test system: human keratinocyte (HaCaT); settings: new results consistent with previous reports; cited from earlier work
[6] = test system: mouse melanoma (B16F1) cells; settings: B16F1, 350 µM; cited from earlier work
[7] = test system: mouse B16 melanomas; settings: cited from earlier work
From the text: Bioactive peptides are a promising group of depigmenting agents because they are derived from natural sources and therefore display low cytotoxicity.

[8] = molecular target: T1, mushroom tyrosinase (mushroom, UniProt C7FF04 1-392); experiment: cell-based or functional assay
T1 sequence (C7FF04 1-392): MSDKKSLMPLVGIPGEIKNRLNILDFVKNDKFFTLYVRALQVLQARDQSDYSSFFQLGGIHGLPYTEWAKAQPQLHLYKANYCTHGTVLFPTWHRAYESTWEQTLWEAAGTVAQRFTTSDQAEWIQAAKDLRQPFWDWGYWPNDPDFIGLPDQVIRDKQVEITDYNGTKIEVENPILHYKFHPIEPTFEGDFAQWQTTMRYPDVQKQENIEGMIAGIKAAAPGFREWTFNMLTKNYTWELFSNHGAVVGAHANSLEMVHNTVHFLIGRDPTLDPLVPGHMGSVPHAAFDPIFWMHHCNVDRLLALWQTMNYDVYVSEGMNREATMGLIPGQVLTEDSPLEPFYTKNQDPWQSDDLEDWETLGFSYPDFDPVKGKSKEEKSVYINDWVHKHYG

[9] = molecular target: T1, mushroom tyrosinase; experiment: enzyme inhibition kinetics (Lineweaver-Burk plot and secondary plot); monophenolase activity of mushroom tyrosinase, L-tyrosine 0.10-0.80 mM, TILI-2 0-300 µM, 50 mM phosphate buffer pH 6.8, 25 °C, absorbance at 475 nm; Ki from slope versus TILI-2 concentration; settings: both partners purified

Molecule: O=C1O[C@H]([C@@H](O)CO)C(O)=C1O [Ascorbic acid, L-Ascorbic acid]
- ABTS radical scavenging (range over concentrations) ([1]; 734 nm): 11.64–82.68%
- IC50 ([1]; absorbance 734 nm, mean ± SD, n = 3): 15.9 ± 0.16 µM
- DPPH radical scavenging (range over concentrations) ([2]; 515 nm): 13.79–82.63%
- IC50 ([2]; absorbance 515 nm, mean ± SD, n = 3): 40.09 ± 0.21 µM

Molecule: CNGVQPK [TILI-2]
- Cell viability ([3]; 1400 µM): 99.65 ± 1.31%
- cytotoxicity (in words) ([3]; NHDF, 0 to 1400 µM, MTT): not toxic
- Cell viability ([4]; 1400 µM): 105.41 ± 5.42%
- cytotoxicity (in words) ([4]; RAW 264.7, 0 to 1400 µM, MTT): not toxic
- cytotoxicity (in words) [5]: not toxic
- cytotoxicity (in words) [6]: non-toxic

Molecule: LQPSHY [CT-2, CT-2 (LQPSHY), a C-terminus tyrosine peptide derived from rice bran]
- melanogenesis (in words) [7]: repressed melanogenesis

B1: Tyrosinase Inhibitor Leucrocin I-2 (TILI-2) (peptide)
peptide: CNGVQPK
notes: N-terminal cysteine-containing heptapeptide, a peptide derivative from Leucrocin I; source: synthetic peptide (GL Biochem Ltd., Fmoc solid-phase synthesis, purity more than 95%)
- IC50 of inhibition of tyrosinase monophenolase activity (L-tyrosine as substrate, A475) [8]: 583 µM
- Ki [9]: 273 µM
